Measured values reported in the CheMixHub ionic liquid set.

Test: xn = mol fraction of the nth substance listed
Conditions: 298.15 K, 100 kPa

CC(CC(C)(C)C)CP(=O)([O-])CC(C)CC(C)(C)C.CCCCCCCCCCCCCC[P+](CCCCCC)(CCCCCC)CCCCCC + CCC(=O)O + O
Conditions	viscosity [mPa·s]
x2 = 0.02049, x1 = 0.1002	133
x2 = 0.02069, x1 = 0.09762	145
x2 = 0.04451, x1 = 0.115	139
x2 = 0.231, x1 = 0.1669	147
x2 = 0.3019, x1 = 0.1781	150
x2 = 0.3925, x1 = 0.1645	145
x2 = 0.4515, x1 = 0.1697	133
x2 = 0.4652, x1 = 0.1675	127
x2 = 0.4969, x1 = 0.154	133
x2 = 0.5235, x1 = 0.1181	81
x2 = 0.5255, x1 = 0.1239	85
x2 = 0.5271, x1 = 0.1398	114
x2 = 0.5377, x1 = 0.108	60
x2 = 0.571, x1 = 0.09705	52
